In patent US11672775B2, “Treprostinil prodrugs” (United Therapeutics Corporation, priority 2016, dated 2023):
Converted amounts (≈) assume the structure as drawn. Where two headings read alike, the source gives them in different places.

Assays:
[1] = Stability in 200 mM potassium phosphate buffer (pH 7.4); type: physicochemical; details: 1 μM
Experimental: According to the earlier aqueous solution stability study, all prodrugs are stable in 20 mM Sodium Phosphate dibasic with 125 mM NaCl at saturation concentrations (3-30 mg/ml). Also, in the method development work, it was also observed that the most unstable prodrugs III, IV and XIV were stable in 200 mM potassium phosphate buffer (pH 7.4) at a low concentration of 1 μM.

[2] = Equilibrium solubility in vehicle; type: physicochemical; details: aqueous buffer, thermodynamic from solid, 20 mM sodium phosphate dibasic with 125 mM sodium chloride; for solubility thermodynamic at 23 h: T0 hours, read-out: Equilibrium solubility, T0 hours Concentration; for solubility thermodynamic at 24 h: T24 hours, read-out: Equilibrium solubility, T24 hours Concentration; for solubility thermodynamic at 72 h: T72 hours, read-out: Equilibrium solubility, T72 hours Concentration
Experimental: (§1) Each prodrug was dissolved in a vehicle containing 20 mM sodium phosphate dibasic with 125 mM sodium chloride. Prodrugs were prepared at saturation concentrations by weighing 15-30 mg of prodrug in to a 4 mL clear glass vial and dissolving in an appropriate volume of vehicle (0.5-1.0 mL) to achieve a nominal saturation concentration of 30 mg/mL. The solutions were mixed for 23 hours on a rotating mixer. […] The resultant supernatant solutions were isolated from undissolved prodrug by centrifugation at 15000 RPM for 15 min. Supernatants were transferred to clear glass vials and stored at ambient temperature. […] The resultant samples were assayed against treprostinil to determine prodrug concentration. At each testing interval (0, 24, 72 hours) the supernatant was assayed for prodrug concentration and purity by area %.

[3] = In vitro metabolic stability of prodrugs in liver microsomes, across all species; type: in vitro ADME, human, Beagle dog, Sprague Dawley rat, Cynomolgus monkey
Experimental: In the second assay, four prodrugs (III, IV, VII and XIV) were tested in Cyno monkey liver microsomes.

[4] = Solution stability in vehicle (UPLC area %); type: physicochemical; details: for Solution stability, T0 Purity: ambient
Experimental: as §1

IP1 receptor = biological target: T1, IP1 receptor (Homo sapiens, UniProt P43119); experiment: cAMP assay (TR-FRET or HTRF kit, forskolin), Examples 5 and 6; type: cell-based; details: read-out: EC50, IP receptor
T1 construct: expressed in transfected cells
T1 sequence (P43119 whole entry): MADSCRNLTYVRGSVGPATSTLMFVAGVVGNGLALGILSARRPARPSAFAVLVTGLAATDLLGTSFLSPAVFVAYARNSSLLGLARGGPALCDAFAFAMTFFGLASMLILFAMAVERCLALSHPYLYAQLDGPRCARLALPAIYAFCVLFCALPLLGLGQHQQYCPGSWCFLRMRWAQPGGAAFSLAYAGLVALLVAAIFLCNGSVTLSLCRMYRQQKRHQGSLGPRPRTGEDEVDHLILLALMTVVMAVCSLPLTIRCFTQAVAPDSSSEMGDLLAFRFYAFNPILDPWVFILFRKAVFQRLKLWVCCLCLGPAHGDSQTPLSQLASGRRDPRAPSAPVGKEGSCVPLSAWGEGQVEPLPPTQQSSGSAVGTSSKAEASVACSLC
Experimental: (§2) [table] Prodrug XV (for structure see FIG. 10) as well as treprostinil were tested for 3 G-protein-coupled receptors (GPCRs), namely DP1, EP2, and IP, using cyclic adenosine monophosphate (cAMP) assay. Cyclic AMP assay kits: Multiscreen™ TR-FRET cAMP 1.0 No Wash Assay Kit (Multispan, Inc., Cat #MSCM01-25) and HTRF cAMP HiRange Kit (CisBio, Cat #62AM6PEC). Instruments: FlexStation III (Molecular Devices). Cyclic AMP (cAMP) Assay: cAMP assays were performed according to the manufacturer's protocol using Multiscreen™ TR-FRET cAMP 1.0 No Wash Assay Kit or HTRF cAMP HiRange Kit. […] The reaction was terminated by sequentially adding sequentially adding trFluor™ Eu-labeled cAMP and trFluor™ 650-labeled anti-cAMP antibody or D2-labeled cAMP and cryptate-labeled anti-cAMP antibody in lysis buffer. The plate was then incubated at room temperature for 60 minutes before reading fluorescent emissions at 620 nm and 665 or 668 nm with excitation at 314 nm on FlexStation III (Molecular Devices). Cyclic AMP (cAMP) assays: Cyclic AMP assay results are shown as “Ratio 665/620×10,000” (ratio of fluorescence at 665 nm and 620 nm×10,000) or “Ratio 668/620×10,000” (ratio of fluorescence at 668 nm and 620 nm×10,000). Data in graphs were represented in Mean±SD. Dose-dependent responses were fitted with sigmoidal dose-response curves allowing variable slopes using GraphPad Prism versions 4, 5 or 6 (Graphpad Prism). Treprostinil Prodrug XIV (for structure see FIG. 10) as well as treprostinil were tested for 3 G-protein-coupled receptors (GPCRs), namely DP1, EP2, and IP, using cyclin adenosine monophosphate (cAMP) assay. Cyclic AMP assay kits: Multiscreen™ TR-FRET cAMP 1.0 No Wash Assay Kit (Multispan, Inc., Cat #MSCM01-25) and HTRF cAMP HiRange Kit (CisBio, Cat #62AM6PEC). Cyclic AMP (cAMP) Assay: cAMP assays were performed according to the manufacturer's protocol using Multiscreen™ TR-FRET cAMP 1.0 No Wash Assay Kit or HTRF cAMP HiRange Kit. […] The reaction was terminated by sequentially adding sequentially adding trFluor™ Eu-labeled cAMP and trFluor™ 650-labeled anti-cAMP antibody or D2-labeled cAMP and cryptate-labeled anti-cAMP antibody in lysis buffer. The plate was then incubated at room temperature for 60 minutes before reading fluorescent emissions at 620 nm and 665 or 668 nm with excitation at 314 nm on FlexStation III (Molecular Devices). Cyclic AMP (cAMP) assays: Cyclic AMP assay results are shown as “Ratio 665/620×10,000” (ratio of fluorescence at 665 nm and 620 nm×10,000) or “Ratio 668/620×10,000” (ratio of fluorescence at 668 nm and 620 nm×10,000). Data in graphs were represented in Mean±SD. Dose-dependent responses were fitted with sigmoidal dose-response curves allowing variable slopes using GraphPad Prism versions 4, 5 or 6 (Graphpad Prism).

EP2 receptor = biological target: T2, EP2 receptor (Homo sapiens, UniProt P43116); experiment: as above; type: cell-based; details: read-out: EC50, EP receptor
T2 construct: expressed in transfected cells
T2 sequence (P43116 whole entry): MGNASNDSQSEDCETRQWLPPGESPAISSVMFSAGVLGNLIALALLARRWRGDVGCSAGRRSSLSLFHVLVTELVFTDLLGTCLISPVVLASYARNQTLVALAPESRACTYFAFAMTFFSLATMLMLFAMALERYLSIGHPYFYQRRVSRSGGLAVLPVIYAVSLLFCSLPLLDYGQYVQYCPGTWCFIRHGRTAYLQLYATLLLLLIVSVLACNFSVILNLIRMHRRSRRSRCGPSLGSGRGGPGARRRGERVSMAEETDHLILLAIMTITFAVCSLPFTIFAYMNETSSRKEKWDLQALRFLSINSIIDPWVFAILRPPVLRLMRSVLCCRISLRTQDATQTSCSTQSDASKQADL
Experimental: as §2

DP1 receptor = biological target: T3, DP1 receptor (Homo sapiens, UniProt Q13258); experiment: as above; type: cell-based; details: read-out: EC50, DP receptor
T3 construct: expressed in transfected cells
T3 sequence (Q13258 1-359): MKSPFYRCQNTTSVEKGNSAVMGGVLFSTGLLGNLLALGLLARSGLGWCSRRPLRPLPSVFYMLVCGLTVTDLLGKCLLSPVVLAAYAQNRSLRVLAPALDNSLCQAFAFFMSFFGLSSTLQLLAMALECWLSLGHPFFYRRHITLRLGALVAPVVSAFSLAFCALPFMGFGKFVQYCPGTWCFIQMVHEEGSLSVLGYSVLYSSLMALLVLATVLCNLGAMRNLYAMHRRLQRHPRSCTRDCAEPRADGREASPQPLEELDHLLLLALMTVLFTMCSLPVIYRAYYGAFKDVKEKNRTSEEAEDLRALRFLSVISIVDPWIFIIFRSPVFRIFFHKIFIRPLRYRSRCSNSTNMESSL
Experimental: as §2

Sprague Dawley rats [5] = experiment: Rat intraplantar injection model, thermal pain sensitivity (Example 10); type: in vivo, Sprague Dawley rat; details: 1 μg/mL or 100 μg/mL; 15 minutes post-administration
Experimental: (§3) Male Sprague Dawley rats (n=56) were allocated into 7 groups of 8 animals per group. […] Each group was compared to the phosphate buffer (50-mM phosphate buffer with 50-mM sodium chloride at pH=7.4) treated group, which served as the control (Group 1).
(§4) Animals were administered 0.1 mL of test material by subcutaneous injection into the paw pad (Intraplantar injection) at time zero. Then, the animals were subsequently evaluated for their response to mechanical (von Frey filaments) and thermal stimuli, 15 and 90 minutes post-injection. The von Frey test was conducted prior to the thermal test, which followed immediately within minutes for each animal. In addition, clinical observation scoring of the animal's reaction to injection was conducted.
The sensitivity of animals to a thermal pain stimulus was assessed immediately following the von Frey test. The time until withdrawal of the right-injected leg from a heat source was measured, and the lower (faster) the time of response represents a greater sensitivity to the stimulus. The test was performed 15 and 90 minutes post-test item injection.

Sprague Dawley rats [6] = experiment: Rat intraplantar injection model, von Frey test (Example 10); type: in vivo, Sprague Dawley rat; details: 1 μg/mL or 100 μg/mL; 15 and 90 minutes post-injection
Experimental: as §3, §4
Mechanical pain sensitivity was tested using the von Frey test, which measures the withdrawal force threshold of the animals. The lower the force applied represents a greater sensitivity to the stimulus. The von Frey test was performed 15 and 90 minutes post-test item injection.

[7] = 20 mM sodium phosphate dibasic with 125 mM sodium chloride, T0

stability in buffer [1]	solubility thermodynamic at 23 h [2] [mg/mL]	solubility thermodynamic at 24 h [2] [mg/mL]	solubility thermodynamic at 72 h [2] [mg/mL]	relative stability of the prodrugs in liver microsomes [3]	Solution stability, T0 Purity [4, 7] [% Area]	Solution stability, T24 hours Purity ([4]; same vehicle) [% Area]	Solution stability, T72 hours Purity ([4]; same vehicle) [% Area]	Structure (SMILES)	also measured
stable	12.5 (≈ 27.9 mM)	12.2 (≈ 27.2 mM)	12.9 (≈ 28.8 mM)	least stable	99.19	99.02	99.15	CCCCC[C@@H](CC[C@@H]1[C@H]2Cc3cccc(OCC(=O)O)c3C[C@H]2C[C@H]1O)OC(=O)OC [Prodrug IV, side chain methyl carbonate of treprostinil]	
stable	29.5 (≈ 63.1 mM)	27.5 (≈ 58.8 mM)	26.6 (≈ 56.9 mM)	least stable	94.20	94.25	94.56	CCCCC[C@H](O)CC[C@@H]1[C@H]2Cc3cccc(OCC(=O)NS(C)(=O)=O)c3C[C@H]2C[C@H]1O [Prodrug XIV, treprostinil methanesulfonamide]	EC50 (IP1 receptor; Table 4 (Example 6)): 3.33 nM; EC50 (EP2 receptor; Table 4 (Example 6)): 67 nM; EC50 (DP1 receptor; Table 4 (Example 6)): 38.8 nM; solubility at 23 h ([2]; approximate, read-out: Solubility in the selected vehicle): ~30 mg/mL (≈ 64.2 mM); T0 Residual Treprostinil [4, 7]: 0.08 % Area; treprostinil formation in the vehicle ([4]; formed over 72 hours): 0.15%; T24 Residual Treprostinil ([4]; same vehicle, T24): 0.13 % Area; T72 Residual Treprostinil ([4]; same vehicle, T72): 0.23 % Area
								CCCCC[C@H](O)CC[C@@H]1[C@H]2Cc3cccc(OCC(=O)OCC(=O)O)c3C[C@H]2C[C@H]1O [Prodrug XV]	thermal paw withdrawal time vs phosphate buffer treated group (Sprague Dawley rats [5]): statistically significantly faster paw withdrawal time; von Frey withdrawal force threshold vs phosphate buffer group (Sprague Dawley rats [6]): reduced withdrawal force threshold; EC50 (IP1 receptor; Table 3 (Example 5)): 4.28 nM; EC50 (EP2 receptor; Table 3 (Example 5)): 41.5 nM; EC50 (DP1 receptor; Table 3 (Example 5)): 6.99 nM
